Results taken from patent publication US20040097478A1, “Remedies for retina and choroid diseases containing steroids as the active ingredient” (SANTEN PHARMACEUTICAL O., LTD, priority 2001, published 2004).
Like-named read-outs stand apart in the source and are kept apart here.

What was measured:
[1] = tested on: Laser-induced rat choroidal neovascularization models; settings: for Neovascularization exhibition rate (%, average of eight eyes): fluorescein fundus angiography on seventh day; for Choroidal neovascularization inhibition rate (%): versus vehicle administration group
Protocol: (§1) A one ml/kg mixed solution (7:1) of a 5% ketamine hydrochloride injection and a 2% xylazine hydrochloride injection was administered intramuscularly to rats to anesthetize them systemically. A 0.5% tropicamide-0.5% phenylephrine hydrochloride ophthalmic solution was instilled into the eyes to cause mydriasis, and then photocoagulation was performed with a krypton laser photocoagulation apparatus. The photocoagulation was carried out in a posterior section of ocular fundus at eight spots per eye sparsely avoiding thick retinal vessels and focusing on the retinal depth (coagulation conditions: spot size: 100 μm, output: 100 mW, coagulation time: 0.1 sec). After the photocoagulation, the ocular fundus was photographed to confirm laser irradiation sites.
Triamcinolone was suspended in the phosphate buffers as a comparative group so that its concentrations were 0.2 mg/ml and 2 mg/ml, and each suspension was administered similarly. The phosphate buffer was administered similarly as a vehicle administration group.
(§2) On seventh day after the photocoagulation, 0.1 ml of 10% fluorescein was injected from carotid vein, and fluorescein fundus angiography was performed. In the fluorescein fundus angiography, a spot where fluorescence diapedesis was not observed was judged as negative, and a spot where fluorescence diapedesis was observed was judged as positive. Each neovascularization exhibition rate was obtained by calculating the ratio of a positive spot number to eight spots irradiated with the laser, and each choroidal neovascularization inhibition rate was calculated according to the following equation.
(§3) Choroidal neovascularization inhibition rate (%)=(Ao−Ax)/Ao×100
(§4) Ao: Neovascularization exhibition rate of vehicle administration group
(§5) Ax: Neovascularization exhibition rate of drug administration group

[2] = tested on: Dispase-induced rabbit PVR models; test: Retinal detachment inhibition tests of betamethasone; type: in vivo; settings: 10 mg/eye subconjunctival immediately after dispase
Protocol: A 0.5% tropicamide-0.5% phenylephrine hydrochloride ophthalmic solution was instilled into eyes of rabbits to cause mydriasis, and a 1 ml/kg mixed solution (7:1) of a 5% ketamine hydrochloride injection and a 2% xylazine hydrochloride injection was administered intramuscularly to the rabbits to anesthetize them systemically. 0.4% oxybuprocaine was instilled into the eyes to anesthetize anterior segments of the eyes, and then 100 μl of a dispase solution prepared at a concentration of 0.05 U/100 μl with physiological saline was injected into vitreous bodies. Six weeks and ten weeks after injecting the dispase solution, PVR induced by dispase was confirmed by observing ocular fundus.
Betamethasone was dissolved in a phosphate buffer so that its concentration was 0.1 g/ml, and the solution was administered subconjunctivally in an amount of 100 μl immediately after injecting dispase. The phosphate buffer was administered similarly as a vehicle administration group.
The ocular fundus was observed 56 days after inducing by dispase, and PVR was judged by scores. Criteria of judgment are shown below. Scores of three or more were defined as exhibition of PVR, and pathogenesis rates of PVR (pathogenesis rates of retinal detachment) in respective groups were calculated according to the equation 2.
1: A vitreous membrane is observed.
2: Traction, vascular abnormality or engorgement of the retina is observed.
3: Topical retinal detachment is observed.
4: Wide retinal detachment is observed.
5: Total retinal detachment is observed.
Pathogenesis rate of PVR (%)=PVR exhibition eye number/test eye number×100

[3] = tested on: Thrombin-induced rat retinal vessel hyperpermeability models; test: Retinal vessel permeability inhibition tests of betamethasone phosphate; type: in vivo; settings: administered with thrombin
Protocol: A one ml/kg mixed solution (7:1) of a 5% ketamine hydrochloride injection and a 2% xylazine hydrochloride injection was intramuscularly administered to rats to anesthetize them systemically. Then, a 0.5% tropicamide-0.5% phenylephrine hydrochloride ophthalmic solution was instilled into left eyes to cause mydriasis. Thrombin (500. U/ml, 2.5 μl) was injected into vitreous bodies (left eye) of rats of a drug administration group and a control group with a 33 G needle without injuring crystalline lenses and retinas while observing them with a microscope for operation. A vehicle (Dulbecco's modified phosphate buffer physiological saline) was administered to rats of a normal group instead of thrombin. […]
Forty-eight hours after administering thrombin intravitreously, the 0.5% tropicamide-0.5% phenylephrine hydrochloride ophthalmic solution was instilled into the eyes to cause mydriasis. […] About 40 minutes after administering fluorescein, blood was collected from hearts, and then an intraocular fluorescent pigment concentration was immediately measured with a fluorotron master. The collected blood was centrifuged at 15,000 rpm×5 minutes, then supernatant (plasma) was diluted 51 times with the phosphate buffer physiological saline, and a fluorescent pigment concentration in the plasma was measured with the fluorotron master. […]

[4] = tested on: Laser-induced rat choroidal neovascularization models; test: Choroidal neovascularization inhibition tests of hydrocortisone; type: in vivo; settings: for Neovascularization exhibition rate (%, average of eight eyes): administered once subconjunctivally immediately after laser irradiation; for Choroidal neovascularization inhibition rate (%): once subconjunctivally, versus vehicle administration group
Protocol: as §1, §2, §3, §4, §5
Hydrocortisone was dissolved in phosphate buffers so that its concentrations were 2 mg/ml and 20 mg/ml, and each solution was administered once subconjunctivally in an amount of 50 μl immediately after laser irradiation. The phosphate buffer was administered similarly as a vehicle administration group.
Evaluation was carried out by a method similar to the above-mentioned tests of betamethasone sodium phosphate.

[5] = 10 μg/eye/day subconjunctival for seven days after laser irradiation
[6] = 100 μg/eye/day subconjunctival for seven days after laser irradiation

## C[C@]12C=CC(=O)C=C1CC[C@H]1[C@@H]3C[C@@H](O)[C@](O)(C(=O)CO)[C@@]3(C)C[C@H](O)[C@@]12F [Triamcinolone]
[1]; [5]
  Neovascularization exhibition rate (%, average of eight eyes): 46.9%
[1]; 10 μg/eye/day subconjunctival for seven days
  Choroidal neovascularization inhibition rate (%): 13.1%
[1]; [6]
  Neovascularization exhibition rate (%, average of eight eyes): 22.3%
[1]; 100 μg/eye/day subconjunctival for seven days
  Choroidal neovascularization inhibition rate (%): 58.8%

## C[C@H]1C[C@H]2[C@@H]3CCC4=CC(=O)C=C[C@]4(C)[C@@]3(F)[C@@H](O)C[C@]2(C)[C@@]1(O)C(=O)CO [Betamethasone]
[2]; after 6 weeks
  Pathogenesis rate of PVR: 45.5%
[2]; after 10 weeks
  Pathogenesis rate of PVR: 37.5%
[2]; after 10 weeks, listed as betamethasone
  Pathogenesis rate of PVR: 37.5%

## C[C@H]1C[C@H]2[C@@H]3CCC4=CC(=O)C=C[C@]4(C)[C@@]3(F)[C@@H](O)C[C@]2(C)[C@@]1(O)C(=O)COP(=O)([O-])[O-].[Na+].[Na+] [Betamethasone sodium phosphate, betamethasone sodium phosphate]
[1]; [5]
  Neovascularization exhibition rate (%, average of eight eyes): 34.4%
[1]; [6]
  Neovascularization exhibition rate (%, average of eight eyes): 11.1%
[3]
  Effect on hyperpermeability of retinal vessels due to thrombin (in words): the hyperpermeability of retinal vessels due to thrombin is inhibited

## C[C@]12CCC(=O)C=C1CC[C@@H]1[C@@H]2[C@@H](O)C[C@@]2(C)[C@H]1CC[C@]2(O)C(=O)CO [Hydrocortisone]
[4]; 100 μg/eye/day
  Neovascularization exhibition rate (%, average of eight eyes): 45.3%
  Choroidal neovascularization inhibition rate (%): 32.6%
[4]; 1000 μg/eye/day
  Neovascularization exhibition rate (%, average of eight eyes): 19.6%
  Choroidal neovascularization inhibition rate (%): 70.8%
[4]; both dosages of 100 μg/eye/day and 1,000 μg/eye/day
  Inhibitory effect on choroidal neovascularization (in words): has an inhibitory effect on choroidal neovascularization
